Among the data in PubChem BioAssay AID686916 (Sanford-Burnham Center for Chemical Genomics, 2013) are IC50 values, retold here.

Values joined by “and” are separate entries in the source; they are usually repeats but may differ in a detail not shown here. Equal entries are not always repeated. Active and inactive are the calls of the source.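 The calls were made as follows: active = concentration halving Nedd8 removal by the CSN enzyme IC50 of 60 µM or lower; inactive = the rest.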

The target in the assay is COP9 signalosome complex subunit 5 (Homo sapiens) (UniProt Q92905). In words: inhibition of CSN cullin-RING ligase deneddylation – biochemical, fluorescence polarization, SCF-Nedd8-OG substrate, set 2, selectivity assay for RPN11 inhibitor project, SAR follow-up (AID 686916). As to conditions: Csn5 deneddylation of SCF-Nedd8-OG. In general terms: Fluorescence polarisation rises when a labelled molecule tumbles more slowly, as on binding a larger partner.
COP9 signalosome complex subunit 5 (Homo sapiens), sequence (Q92905 whole entry, looked up, one chain of several): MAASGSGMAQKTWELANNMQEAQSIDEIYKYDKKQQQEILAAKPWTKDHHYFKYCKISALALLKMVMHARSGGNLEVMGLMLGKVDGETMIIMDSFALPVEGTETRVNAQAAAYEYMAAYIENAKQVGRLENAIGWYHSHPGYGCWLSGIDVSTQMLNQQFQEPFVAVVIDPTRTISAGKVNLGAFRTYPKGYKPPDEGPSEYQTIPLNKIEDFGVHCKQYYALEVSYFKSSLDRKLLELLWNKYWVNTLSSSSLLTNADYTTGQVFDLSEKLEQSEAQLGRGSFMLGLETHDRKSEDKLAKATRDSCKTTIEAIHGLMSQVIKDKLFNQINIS
What is called IC50 is the point on the concentration scale where inhibition reaches its midpoint. Turning to `COc1ccc(C(=O)Sc2cccc3cccnc23)cc1`, the IC50 is 13.7 µM.

Regarding `COC(=O)[C@@H]1CCCN1C(=O)c1cnc2c(SSc3cccc4cc(C(=O)N5CCC[C@H]5C(=O)OC)cnc34)cccc2c1`, the IC50 was 17.6 µM.

`O=C(Sc1cccc2cccnc12)c1ccc(F)cc1`: the IC50 was 3.12 µM.

For `O=C(Sc1cccc2cccnc12)c1ccccc1I`, the half-maximal inhibitory concentration (IC50) was 19.4 µM.

For `O=C(O)c1cnc2c(SSc3cccc4cc(C(=O)O)cnc34)cccc2c1`, the 50% inhibitory concentration (IC50) is 4.28 µM.

For the compound `COC(=O)[C@@H](NC(=O)c1cnc2c(SSc3cccc4cc(C(=O)N[C@H](C(=O)OC)C(C)C)cnc34)cccc2c1)C(C)C`, the 50% inhibitory concentration (IC50) was 11.8 µM.

Take `O=C(Sc1cccc2cccnc12)c1ccc(F)c(F)c1`: the 50% inhibitory concentration (IC50) was 4.92 µM.

As to `CC(C)Cc1ccc(C(=O)Sc2cccc3cccnc23)cc1`, the half-maximal inhibitory concentration (IC50) is 15.6 µM.

On to `COC(=O)[C@H](CO)NC(=O)c1cnc2c(SSc3cccc4cc(C(=O)N[C@@H](CO)C(=O)OC)cnc34)cccc2c1`, for which the IC50 was 36.2 µM.

`O=C(Sc1cccc2cccnc12)c1ccccc1[N+](=O)[O-]`: the IC50 is 9.08 µM.

Consider `COC(=O)[C@H](C)NC(=O)c1cnc2c(SSc3cccc4cc(C(=O)N[C@@H](C)C(=O)OC)cnc34)cccc2c1`, for which the half-maximal inhibitory concentration (IC50) is 20.3 µM.

With `CCOc1ccccc1C(=O)Sc1cccc2cccnc12`, the IC50 is 11.7 µM and 31.8 µM.

For `O=C(Sc1cccc2cccnc12)c1cccc(C(F)(F)F)c1`, the IC50 was > 95 µM (inactive).

For `COC(=O)[C@H](C)NC(=O)c1ccnc2c(SSc3cccc4c(C(=O)N[C@@H](C)C(=O)OC)ccnc34)cccc12`, the IC50 is 22.2 µM.

Regarding `O=C(Sc1cccc2cccnc12)c1ccccc1Cl`, the IC50 is 19.9 µM.

As for `C[C@@H](C(=O)O)N(C)C(=O)c1cnc2c(SSc3cccc4cc(C(=O)N(C)[C@@H](C)C(=O)O)cnc34)cccc2c1`, the IC50 was 13 µM.

On to `O=C(Sc1cccc2cccnc12)c1ccccc1Br`, for which the IC50 was 7.91 µM.

For the compound `COc1ccc(C(=O)Sc2cccc3cccnc23)cc1F`, the half-maximal inhibitory concentration (IC50) was 5 µM.

On to `COC(=O)[C@H](CC(C)C)NC(=O)c1cnc2c(SSc3cccc4cc(C(=O)N[C@@H](CC(C)C)C(=O)OC)cnc34)cccc2c1`, for which the half-maximal inhibitory concentration (IC50) is 13.9 µM.

In the case of `COC(=O)c1cnc2c(SSc3cccc4cc(C(=O)OC)cnc34)cccc2c1`, the IC50 was 20 µM.

On to `CCCc1ccc(C(=O)Sc2cccc3cccnc23)cc1`, for which the IC50 was 10.4 µM.

For `N#Cc1ccc(C(=O)Sc2cccc3cccnc23)cc1`, the IC50 was > 95 µM (inactive).

Take `COc1cccc(C(=O)Sc2cccc3cccnc23)c1`: the IC50 was 5.57 µM.

For `Cc1ccc(C(=O)Sc2cccc3cccnc23)cc1`, the IC50 is > 95 µM (inactive).

On to `COc1ccccc1C(=O)Sc1cccc2cccnc12`, for which the 50% inhibitory concentration (IC50) was 20.7 µM and 5.61 µM.

For the compound `Cc1cccc(C(=O)Sc2cccc3cccnc23)c1`, the IC50 was 12.3 µM.

For `O=C(Sc1cccc2cccnc12)c1ccccc1OC(F)(F)F`, the IC50 is 17.8 µM.

For `O=C(Sc1cccc2cccnc12)c1ccccc1F`, the IC50 is > 95 µM (inactive).

With `O=C(Sc1cccc2cccnc12)c1ccc2c(c1)OCO2`, the IC50 is 40.1 µM.

Take `O=C(Sc1cccc2cccnc12)c1ccccc1`: the IC50 is 11.2 µM.

Take `O=C(Sc1cccc2cccnc12)c1cccc2ccccc12`: the IC50 was 14.3 µM.

For the compound `CC(C)C[C@H](NC(=O)c1cnc2c(SSc3cccc4cc(C(=O)N[C@@H](CC(C)C)C(=O)O)cnc34)cccc2c1)C(=O)O`, the concentration for half-maximal inhibition (IC50) was 11.8 µM.

In the case of `O=C(Sc1cccc2cccnc12)C1CCCCC1`, the IC50 is 4.07 µM.

`Cc1ccccc1C(=O)Sc1cccc2cccnc12`: the IC50 is 18.2 µM.

As to `O=C(Sc1cccc2cccnc12)c1cccc(Cl)c1`, the half-maximal inhibitory concentration (IC50) was 2.63 µM.

As for `O=C(O)[C@@H]1CCCN1C(=O)c1cnc2c(SSc3cccc4cc(C(=O)N5CCC[C@H]5C(=O)O)cnc34)cccc2c1`, the IC50 was 6.36 µM.

For `COC(=O)C[C@H](NC(=O)c1cnc2c(SSc3cccc4cc(C(=O)N[C@@H](CC(=O)OC)C(=O)OC)cnc34)cccc2c1)C(=O)OC`, the concentration for half-maximal inhibition (IC50) was 13 µM.

For `N#Cc1cccc(C(=O)Sc2cccc3cccnc23)c1`, the IC50 was 33.3 µM.

Consider `O=C(Sc1cccc2cccnc12)c1ccc(C(F)(F)F)cc1`, for which the IC50 was 5.25 µM.

Turning to `CC(C)(C)OC(=O)CCNC(=O)c1cnc2c(SSc3cccc4cc(C(=O)NCCC(=O)OC(C)(C)C)cnc34)cccc2c1`, the concentration for half-maximal inhibition (IC50) is 26.4 µM.

Take `COC(=O)[C@H](C)N(C)C(=O)c1cnc2c(SSc3cccc4cc(C(=O)N(C)[C@@H](C)C(=O)OC)cnc34)cccc2c1`: the concentration for half-maximal inhibition (IC50) was 12.8 µM.

For the compound `O=C(Sc1cccc2cccnc12)c1c(Cl)cccc1Cl`, the half-inhibitory concentration (IC50) was 17.4 µM.

For the compound `O=C(Sc1cccc2cccnc12)c1ccc([N+](=O)[O-])cc1`, the IC50 was 13 µM.

For the compound `COc1ccc(C(=O)Sc2cccc3cccnc23)cc1OC`, the half-inhibitory concentration (IC50) was 14.3 µM.

For `CC[C@@H](C)[C@H](NC(=O)c1cnc2c(SSc3cccc4cc(C(=O)N[C@H](C(=O)O)[C@H](C)CC)cnc34)cccc2c1)C(=O)O`, the half-inhibitory concentration (IC50) is 8.57 µM.

For `O=C(Sc1cccc2cccnc12)c1ccc(F)cc1F`, the IC50 is 24.6 µM.

For `CC[C@@H](C)[C@H](NC(=O)c1cnc2c(SSc3cccc4cc(C(=O)N[C@H](C(=O)OC)[C@@H](C)CC)cnc34)cccc2c1)C(=O)OC`, the half-maximal inhibitory concentration (IC50) is 4.73 µM.

Turning to `CC(C)[C@H](NC(=O)c1cnc2c(SSc3cccc4cc(C(=O)N[C@H](C(=O)O)C(C)C)cnc34)cccc2c1)C(=O)O`, the IC50 is 8.35 µM.
